Results as given in article PMC6112376, “Comprehensive Analyses and Prioritization of Tox21 10K Chemicals Affecting Mitochondrial Function by in-Depth Mechanistic Studies” (Environmental Health Perspectives, 2018).
Like-named read-outs stand apart in the source and are kept apart here. Where a SMILES comes first, the peptide text is derived from it. [ ]: non-standard residue; d: D form. Orn = NCCC[C@H](N)C(=O)O

Columns and labels:
rat primary hepatocytes [1] = tested on: rat primary hepatocytes
rat primary hepatocytes [2] = assay: MMP assay in rat primary hepatocytes; conditions: for IC50: read-out: MMP assays IC50 (µM) Rat Hepatocytes
HepG2 cells [3] = conditions: for IC50: read-out: MMP assays IC50 (µM) HepG2
HepG2 cells [4] = conditions: cited from earlier work
HepG2 cells [5] = assay: cells; conditions: Homo sapiens; for IC50: HepG2, read-out: MMP assays IC50 (µM) HepG2; for Emax: HepG2, read-out: MMP assays efficacy (%) HepG2
[6] = read-out: MMP assays IC50 (µM) qHTS-HepG2
[7] = read-out: MMP assays IC50 (µM), qHTS-HepG2
[8] = HepG2 cells, single number from one experiment

SMILES	MMP assays efficacy (%) Rat Hepatocytes (rat primary hepatocytes [1])	IC50 (rat primary hepatocytes [2])	MMP assays IC50 (µM) HepG2 (HepG2 cells [3])	MMP assays efficacy (%) HepG2 (HepG2 cells [3])	MMP assays efficacy (%) qHTS-HepG2 (HepG2 cells [4])	IC50 (HepG2 cells [4]; [6])	IC50 (HepG2 cells [3])	IC50 (HepG2 cells [4]; [7])	IC50 (rat primary hepatocytes [2]; rat hepatocytes, mean ± SD of three experiments)	MMP assays efficacy (%) HepG2 (HepG2 cells [3]; [8])	IC50 (HepG2 cells [3]; [8])	IC50 (HepG2 cells [5])	Emax (HepG2 cells [5])	IC50 (rat primary hepatocytes [2]; Rattus norvegicus, Hepatocyte)	MMP assays IC50 (µM) Rat Hepatocytes (rat primary hepatocytes [2])
ClC1C(Cl)C(Cl)C(Cl)C(Cl)C1Cl (stereo not drawn) [alpha-1,2,3,4,5,6-Hexachlorocyclohexane]	-54±20%	39.8 µM	inactive	inactive	-54±7%	49 ± 6.35 µM	–	–	–	–	–	–	–	–	–
O=C1C(I)=CC(=C(c2cc(I)c(O)c(I)c2)c2ccccc2C(=O)O)C=C1I [Iodophthalein sodium]	-107±27%	8.73 ± 1 µM	–	-97%	-82±5%	–	6.9 µM	10.8 ± 3.91 µM	–	–	–	–	–	–	–
O=C(Nc1cccc([N+](=O)[O-])c1)c1cc2ccccc2cc1O	-89±5%	1.6 ± 0.26 µM	–	-93%	-91±2%	0.24 ± 0.09 µM	0.28 µM	–	–	–	–	–	–	–	–
COC(=O)c1c(C)cc(O)c(C)c1O	-81±57%	–	–	–	–	–	–	16 ± 6.62 µM	30.6 ± 28.4 µM	-103%	25.1 µM	–	–	–	–
CC(C)C[C@@H]1NC(=O)[C@H](CCCN)NC(=O)[C@H](C(C)C)NC(=O)[C@@H]2CCCN2C(=O)[C@@H](Cc2ccccc2)NC(=O)[C@H](CC(C)C)NC(=O)[C@H](CCCN)NC(=O)[C@H](C(C)C)NC(=O)[C@@H]2CCCN2C(=O)[C@@H](Cc2ccccc2)NC1=O [gramicidin, reference compound] (cyclo(L[dF]PV[Orn]L[dF]PV[Orn]))	-112±28%	–	–	-121%	-86±3%	–	–	0.51 ± 0.42 µM	–	–	–	–	–	–	–
O=c1oc2ccccc2c(O)c1C(CC(O)c1ccc(-c2ccc(Br)cc2)cc1)c1ccccc1 (centres unmarked) [Bromadiolone]	-79±51%	3.4 ± 0.83 µM	–	-108%	-105±3%	16.7 ± 1.13 µM	4.35 µM	–	–	–	–	–	–	–	–
C=C(C)C(=O)OCC(O)COc1ccc(C(C)(C)c2ccc(OCC(O)COC(=O)C(=C)C)cc2)cc1 (centres unmarked) [Bisphenol A glycidyl methacrylate]	-70±50%	38.1 ± 9.22 µM	–	-118%	-121±28%	12.2 ± 11.9 µM	15.8 µM	–	–	–	–	–	–	–	–
CCN(CC)C(=S)[S-].CCN(CC)C(=S)[S-].[Zn+2] [Zinc diethyldithiocarbamate]	-95±12%	–	–	-63%	-70±15%	–	–	–	–	–	–	–	–	–	–
Nc1ccc(N)c2ccccc12 [1,4-Naphthalenediamine]	-44±17%	–	–	–	-88±2%	0.2 ± 0.08 µM	–	–	–	–	–	2 µM	109%	22.7 ± 8.75 µM	–
O=C1OC(c2ccc(O)cc2)(c2ccc(O)cc2)c2ccccc21 [Phenolphthalein]	-98±24%	–	–	–	-103±24%	–	–	42.8 ± 2.74 µM	–	–	–	25.1 µM	132%	39.5 ± 16.9 µM	–
Cc1ccccc1C(=O)Nc1ccc(C(=O)N2CCCC(O)c3cc(Cl)ccc32)c(C)c1 (centres unmarked) [Tolvaptan]	-67±60%	–	–	–	-65±11%	–	–	17.4 ± 8.01 µM	–	–	–	19.4 µM	50%	17.4 ± 2 µM	–
CC1(C(=O)Nc2ccc(O)c(Cl)c2Cl)CCCCC1 [Fenhexamid]	-62±26%	–	–	–	-88±22%	8.31 ± 1.15 µM	–	–	–	–	–	17.8 µM	98%	36.7 ± 21.2 µM	–
O=[N+]([O-])c1ccc(Oc2ccc(C(F)(F)F)cc2[N+](=O)[O-])cc1 [Fluorodifen]	-114±10%	–	–	–	-89±20%	–	–	27.3 ± 25.1 µM	–	–	–	28.2 µM	94%	24.1 ± 15 µM	–
CCCCCc1ccc(C)cc1O [Amylmetacresol]	inactive	–	–	–	-109±16%	11.2 ± 0.65 µM	–	–	–	–	–	–	115%	–	inactive
O=S(=O)(c1ccc(Cl)cc1)c1ccc(Cl)cc1 [4,4'-Dichlorodiphenyl sulfone]	-72±26%	–	–	–	-99±22%	21.3 ± 6.06 µM	–	–	–	–	–	35.5 µM	96%	29.9 ± 2.43 µM	–
C/C=C(/C(=C/C)c1ccc(O)cc1)c1ccc(O)cc1 [Dienestrol]	inactive	–	–	–	-98±10%	10.9 ± 1.88 µM	–	–	–	–	–	8.3 µM	84%	–	inactive
O=C(O)Cc1sc(-c2ccccc2)nc1-c1ccc(Cl)cc1 [Fentiazac]	-88±22%	–	–	–	-91±18%	27.4 ± 2.92 µM	–	–	–	–	–	19.4 µM	57%	9.49 ± 7.98 µM	–

SMILES	MMP assays efficacy (%) Rat Hepatocytes (rat primary hepatocytes [1])	IC50 (rat primary hepatocytes [2])	MMP assays IC50 (µM) HepG2 (HepG2 cells [3])	MMP assays efficacy (%) HepG2 (HepG2 cells [3])	MMP assays efficacy (%) qHTS-HepG2 (HepG2 cells [4])	IC50 (HepG2 cells [4]; [6])	IC50 (HepG2 cells [3])	IC50 (HepG2 cells [4]; [7])	IC50 (rat primary hepatocytes [2]; rat hepatocytes, mean ± SD of three experiments)	MMP assays efficacy (%) HepG2 (HepG2 cells [3]; [8])	IC50 (HepG2 cells [3]; [8])	IC50 (HepG2 cells [5])	Emax (HepG2 cells [5])	IC50 (rat primary hepatocytes [2]; Rattus norvegicus, Hepatocyte)	MMP assays IC50 (µM) Rat Hepatocytes (rat primary hepatocytes [2])
CC1CCCCC1NC(=O)Nc1ccccc1 (centres unmarked) [Siduron]	-48±7%	–	–	–	-73±13%	–	–	41.6 ± 21.1 µM	–	–	–	35.5 µM	89%	43.9 ± 17.4 µM	–
CC1(C)CCC(C)(C)c2cc(NC(=O)c3ccc(C(=O)O)cc3)ccc21 [Tamibarotene]	-75±57%	–	–	–	-128±10%	–	–	25.7 ± 1.05 µM	–	–	–	13.8 µM	95%	9.06 ± 6.66 µM	–
CCCN(CC1CC1)c1c([N+](=O)[O-])cc(C(F)(F)F)cc1[N+](=O)[O-] [Profluralin]	-37±10%	–	–	–	-76±20%	–	–	21.7 ± 8.04 µM	–	–	–	39.8 µM	58%	25.1 ± 35.4 µM	–
CCCCC(=O)O[C@]1(C(=O)CO)[C@H](C)C[C@H]2[C@@H]3CCC4=CC(=O)C=C[C@]4(C)[C@@]3(F)[C@@H](O)C[C@@]21C [Dexamethasone valerate]	-66±25%	–	–	–	-74±6%	12.1 ± 4.39 µM	–	–	–	–	–	17.3 µM	114%	23.5 ± 5.67 µM	–
S=C=Nc1ccccc1 [Phenyl isothiocyanate]	inactive	–	–	–	-103±16%	–	–	43 ± 14.8 µM	–	–	–	35.5 µM	134%	–	inactive
CC(C)OC(=O)C(O)(c1ccc(Cl)cc1)c1ccc(Cl)cc1 [Chloropropylate]	-66±32%	–	–	–	-105±14%	26.3 ± 3.64 µM	–	–	–	–	–	44.7 µM	102%	43.8 ± 10.9 µM	–
BrC1CCC(Br)C(Br)CCC(Br)C(Br)CCC1Br (centres unmarked) [1,2,5,6,9,10-Hexabromocyclododecane]	-89±40%	–	–	–	-96±6%	6.93 ± 1.95 µM	–	–	–	–	–	6.31 µM	105%	32 ± 16.5 µM	–
O=C=Nc1ccc(Cl)cc1 [4-Chlorophenyl isocyanate]	-98±7%	–	–	–	-110±18%	0.27 ± 0.11 µM	–	–	–	–	–	0.71 µM	99%	1.56 ± 0.39 µM	–
CN(C)S(=O)(=O)N(SC(F)(Cl)Cl)c1ccccc1 [Dichlofluanid]	-59±33%	–	–	–	-105±5%	5.24 ± 1.99 µM	–	–	–	–	–	25.1 µM	99%	23 ± 29.5 µM	–
C[C@@]1(c2ccc(Oc3ccccc3)cc2)OC(=O)N(Nc2ccccc2)C1=O (racemic) [Famoxadone]	-158±101%	–	–	–	-104±6%	4.19 ± 1.07 µM	–	–	–	–	–	4.47 µM	107%	8.38 ± 6.71 µM	–
CC(=O)CC(c1ccc([N+](=O)[O-])cc1)c1c(O)c2ccccc2oc1=O (centres unmarked) [Acenocoumarol]	-64±56%	–	–	–	-96±12%	8.36 ± 1.07 µM	–	–	–	–	–	9.32 µM	89%	4.59 ± 1.82 µM	–
Oc1c(Cl)cc(Cl)c(Cl)c1Cc1c(O)c(Cl)cc(Cl)c1Cl [Hexachlorophene]	-103±31%	–	–	–	-101±7%	–	–	0.7 ± 0.46 µM	–	–	–	0.63 µM	115%	1 ± 0.74 µM	–
OC(c1ccc(Cl)cc1)(c1ccc(Cl)cc1)C(Cl)(Cl)Cl [Dicofol]	-122±51%	–	–	–	-98±4%	9.69 ± 3.51 µM	–	–	–	–	–	8.91 µM	101%	24.6 ± 9.27 µM	–
CCC(C)(C)c1ccc(O)cc1 [4-(2-Methylbutan-2-yl)phenol]	inactive	–	–	–	-95±13%	22.7 ± 3.07 µM	–	–	–	–	–	35.5 µM	96%	–	inactive
CCC(C)(CC)c1cc(NC(=O)c2c(OC)cccc2OC)on1 [Isoxaben]	inactive	–	–	–	-80±23%	–	–	26.3 ± 5.75 µM	–	–	–	14.1 µM	60%	–	inactive
CCC(C)(c1ccc(O)cc1)c1ccc(O)cc1 [Bisphenol B]	-79±17%	–	–	–	-117±22%	10.7 ± 2.48 µM	–	–	–	–	–	10 µM	122%	21.8 ± 8.6 µM	–
